In patent publication EP4810040A2, “INHIBITORS OF APOL1 AND METHODS OF USING SAME” (priority 2020, dated 2022):
Like-named read-outs stand apart in the source and are kept apart here.

Target: T1, APOL1 G1 (Homo sapiens, UniProt O14791, I384M/S342G)
T1 sequence (O14791 28-398 S342G/I384M): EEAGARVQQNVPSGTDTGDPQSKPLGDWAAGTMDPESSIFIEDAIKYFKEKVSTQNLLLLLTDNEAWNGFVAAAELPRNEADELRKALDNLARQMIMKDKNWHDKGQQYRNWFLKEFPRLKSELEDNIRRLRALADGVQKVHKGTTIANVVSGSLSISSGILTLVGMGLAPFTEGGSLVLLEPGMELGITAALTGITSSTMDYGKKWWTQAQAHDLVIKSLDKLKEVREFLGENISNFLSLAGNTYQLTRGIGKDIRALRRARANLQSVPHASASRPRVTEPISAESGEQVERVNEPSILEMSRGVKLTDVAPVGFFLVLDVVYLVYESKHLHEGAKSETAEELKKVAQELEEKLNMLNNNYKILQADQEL
Assay: MultiTox-Fluor Multiplex Cytotoxicity Assay, tet-inducible APOL1 G1 T-REx-HEK293 cells
Assay type: cell-based
Set-up: expressed in transfected cells; host or cells: T-REx HEK293, clone G1 DC3.25 (pAAVS1-Puro-APOL1 G1)
Details: for IC90: read-out: Multi-Tox Assay IC90; for Emax: read-out: Multi-Tox Assay Max Activity (%)
Procedure: The MultiTox-Fluor Multiplex Cytotoxicity Assay is a single-reagent-addition, homogeneous, fluorescence assay that measures the number of live and dead cells simultaneously in culture wells. The assay measures cell viability and cytotoxicity by detecting two distinct protease activities. The live-cell protease activity is restricted to intact viable cells and is measured using a fluorogenic, cell-permeant peptide glycyl-phenylalanylamino fluorocoumarin (GF-AFC) substrate. The substrate enters intact cells, where it is cleaved to generate a fluorescent signal proportional to the number of living cells. […] A second, cell-impermeant, fluorogenic peptide substrate (bis-AAF-R110 Substrate) is used to measure dead-cell protease that has been released from cells that have lost membrane integrity. A ratio of dead to live cells is used to normalize data.
Briefly, the tet-inducible transgenic APOL1 T-REx-HEK293 cell lines were incubated with 50 ng/mL tet to induce APOL1 in the presence of 3-(2-(4-fluorophenyl)-1H-indol-3-yl)-N-((3S,4R)-4-hydroxy-2-oxopyrrolidin-3-yl)propenamide at […], 0.0045, 0.0015, 0.0005 µM in duplicate for 24 hours in a humidified 37°C incubator. The MultiTox reagent was added to each well and placed back in the incubator for an additional 30 minutes. The plate was read on the EnVision plate reader. A ratio of dead to live cells was used to normalize, and data was imported, analyzed and fit using Genedata Screener (Basel, Switzerland) software. Data was normalized using percent of control, no tet (100% viability), and 50 ng/mL tet treated (0% viability),and fit using Smart Fit. The reagents, methods, and complete protocol for the MultiTox assay are described below. Table 42. Reagents Used in the Multi-Tox Assay
Human embryonic kidney (HEK293) cell lines containing a tet-inducible expression system (T-REx™; Invitrogen, Carlsbad, CA) and Adeno-associated virus site 1 pAA VS1-Puro-APOL1 G0 or pAAVS1-Puro-APOL1 G1 or pAAVS1-Puro-APOL1 G2 Clones G0 DC2.13, G1 DC3.25, and G2 DC4.44 were grown in a T-225 flask at ~90% confluency in cell growth media (DMEM, 10% Tet-free FBS, 2 mM L-glutamine, 100 Units/mL penicillin-streptomycin, 5 µg/mL blasticidin S HCl, 1 µg/mL puromycin dihydrochloride). Cells were washed with DPBS and then trypsinized to dissociate from the flask. Media was used to quench the trypsin, cells were then pelleted at 200g and resuspended in fresh cell assay media (DMEM, 2% Tet-free FBS, 2 mM L-glutamine, 100 Units/mL penicillin-streptomycin). Cells were counted and diluted to 1.17 x 10^6 cells/mL. 20 µL of cells (23,400/well) were dispensed to every well of a 384-well Poly-D-Lysine coated plate using the Multidrop dispenser. The plates were then incubated at room temperature for one hour.
Tetracycline is needed to induce APOL1 expression. 1 mg/mL tet stock in water was diluted to 250 ng/mL (5X) in cell assay media. 60 µL of cell assay media (no tet control) was dispensed in columns 1 and 24, and 60 µL of 5X tet was dispensed in 384-PP-round bottom plate in columns 2 to 23 with the Multidrop dispenser.
Assay ready plates from the Global Compound Archive were ordered using template 384_APOL1Cell_DR10n2_50uM_v3. Compounds were dispensed at 200 nL in DMSO. The final top concentration was 10 µM with a 10 point 3-fold dilution in duplicate in the MultiTox assay.
20 µL were transferred from the 5X tet plate to the ARP and mixed, then 5 µL of 5X tet and the compounds were transferred to the cell plate and mixed using the Bravo. The cell plate was placed in the humidified 37°C 5% CO2 incubator for 24 hours.
The MultiTox-Fluor Multiplex Cytotoxicity Assay was performed in accordance with the manufacturer's protocol. […]

[1] = HEK293, Multi-Tox Assay, APOL1 variant (G0/G1/G2) of the HEK293 cells not given
[2] = Multi-Tox Assay, APOL1 variant not given
[3] = Multi-Tox Assay, APOL1 variant (G0/G1/G2) not stated in Table 46

Row | Compound | IC90 [1] [nM] | Multi-Tox Assay Max Activity (%) [2] [%] | Emax [2] [%] | also measured
1 | COCC(O)Cn1cc([C@@H]2C[C@]3(C[C@H](C)N2)OCC(F)(F)c2cc(Cl)sc23)nn1 (stereo partly drawn) [Compound 342] | 50 to 500 | 98.0 |  | 
2 | C[C@H]1C[C@@]2(C[C@@H](c3cn(Cc4cccc(CO)c4)nn3)N1)OCC(F)(F)c1cc(Cl)sc12 [Compound 313] | 50 to 500 | 98.0 |  | 
3 | COC(=O)[C@@H]1C[C@]2(C[C@@H](C)N1)OCCc1cc(Cl)sc12 (stereo in doubt) [Compound 209, methyl (2'S,6'R,7S)-2-chloro-6'-methyl-spiro[4,5-dihydrothieno[2,3-c]pyran-7,4'-piperidine]-2'-carboxylate] | > 500 |  | 76.7 | 
4 | C[C@H]1C[C@@]2(C[C@@H](c3cnn(-c4ccccc4)c3)N1)OCCc1cc(Cl)sc12 (racemic) [Compound 65] | < 50 |  | 99.5 | 
5 | Cc1ncc(Cn2cc([C@@H]3C[C@]4(C[C@H](C)N3)OCC(F)(F)c3cc(Cl)sc34)nn2)cn1 [Compound 318] | < 50 |  |  | 
6 | CC1CC2(CC(c3cnn(-c4cccnc4)c3)N1)OCCc1cc(Cl)sc12 (stereo not drawn) [Compound 40] | < 50 | 100.0 |  | 
7 | COCC1CC2(CC(c3cn(C)nn3)N1)OCCc1cc(Cl)sc12 (stereo not drawn) [Compound 190] | 50 to 500 |  | 99 | 
8 | COc1ccc([C@@H]2C[C@]3(C[C@H](C)N2)OCCc2cc(Cl)sc23)cc1O (racemic) [Compound 99] | < 50 |  |  | 
9 | C[C@H]1C[C@@]2(C[C@@H](c3cn(CCC(C)(C)O)nn3)N1)OCC(F)(F)c1cc(Cl)sc12 [Compound 367] |  |  |  | IC90 [3]: < 50 nM
10 | Cc1cc([C@@H]2C[C@]3(C[C@H](C)N2)OCCc2cc(Cl)sc23)on1 (racemic) [Compound 66] | < 50 |  | 99.8 | 
11 | C[C@@H]1CC2(C[C@H](C)N1)OCCc1cc(C3CCCCC3)sc12 (single isomer, unassigned) [Compound 202] | > 500 |  | 94.7 | 
12 | CC(CO)Cn1cc([C@@H]2C[C@]3(C[C@H](C)N2)OCC(F)(F)c2cc(Cl)sc23)nn1 (stereo partly drawn) [Compound 370] |  |  |  | IC90 [3]: 50 to 500 nM; IC50 (Multi-Tox Assay, IP50 = IC50 for cell proliferation, APOL1 variant not stated in Table 46): 50 to 500 nM
13 | Cc1cc([C@@H]2C[C@]3(C[C@H](C)N2)OCCc2cc(Cl)sc23)nc(N(C)C)n1 (racemic) [Compound 138] | 50 to 500 | 98.0 |  | 
14 | Cc1n[nH]c2ncc([C@@H]3C[C@]4(C[C@H](C)N3)OCCc3cc(Cl)sc34)cc12 (racemic) [Compound 48] | < 50 |  |  | 
15 | CC(C)Cc1cc2c(s1)C1(C[C@@H](C)N[C@@H](C)C1)OCC2 (single isomer, unassigned) [Compound 201] | > 500 |  | 95 | 
16 | C[C@H]1C[C@@]2(C[C@@H](c3cc(C4CC4)n[nH]3)N1)OCCc1cc(Cl)sc12 (racemic) [Compound 120] | 50 to 500 |  |  | 
17 | Cn1cc(C2CC3(CC(C(F)F)N2)OCCc2cc(Cl)sc23)nn1 (stereo not drawn) [Compound 388, 2-chloro-2'-(difluoromethyl)-6'-(1-methyltriazol-4-yl)spiro[4,5-dihydrothieno[2,3-c]pyran-7,4'-piperidine]] |  |  |  | IC90 [3]: > 500 nM; Emax (Multi-Tox Assay, APOL1 variant not stated in Table 46): 90%
18 | C[C@H]1C[C@@]2(C[C@@H](c3cn(Cc4ccccn4)nn3)N1)OC[C@@H](O)c1cc(Cl)sc12 [Compound 292] | 50 to 500 |  |  | 

Row | Compound | IC90 [1] [nM] | Multi-Tox Assay Max Activity (%) [2] [%] | Emax [2] [%] | also measured
19 | C[C@H]1C[C@@]2(C[C@@H](c3cnc(C(N)=O)cn3)N1)OCCc1cc(Cl)sc12 (racemic) [Compound 63] | < 50 |  | 99.8 | 
20 | C[C@H]1C[C@@]2(C[C@@H](c3cn(CC(N)=O)nn3)N1)OCCc1cc(Cl)sc12 (racemic) [Compound 133] | 50 to 500 | 99.7 |  | 
21 | C[C@H]1C[C@@]2(C[C@@H](c3cocn3)N1)OCCc1cc(Cl)sc12 (racemic) [Compound 79] | 50 to 500 |  | 99.7 | 
22 | C[C@H]1C[C@@]2(C[C@@H](c3cccc(NS(C)(=O)=O)c3)N1)OCCc1cc(Cl)sc12 (racemic) [Compound 115] | 50 to 500 | 99.3 |  | 
23 | CCc1cc2c(s1)CCO[C@@]21C[C@@H](c2cnn(CCS(C)(=O)=O)c2)N[C@@H](C)C1 [Compound 5] | 50 to 500 | 100.0 |  | 
24 | Cc1ccnn1CCn1cc([C@@H]2C[C@]3(C[C@H](C)N2)OCC(F)(F)c2cc(Cl)sc23)nn1 [Compound 315] | 50 to 500 | 98.0 |  | 
25 | CC1CC2(CC(C3CCOCC3)N1)OCCc1cc(Cl)sc12 (mixture of isomers) [Compound 216] | > 500 |  | 97.7 | 
26 | C[C@H]1C[C@@]2(C[C@@H](c3cnccc3O)N1)OCCc1cc(Cl)sc12 (racemic) [Compound 160] | > 500 | 94.3 |  | 
27 | Cc1ccc([C@@H]2C[C@]3(C[C@H](C)N2)OCCc2cc(Cl)sc23)cn1 (racemic) [Compound 55] | < 50 | 99.7 |  | 
28 | CCC1CC2(CC(C)N1)OCCc1cc(Cl)sc12 (mixture of isomers) [Compound 215] | 50 to 500 |  | 99.3 | 
29 | CC(C)N1CC(Cn2cc([C@@H]3C[C@]4(C[C@H](C)N3)OC[C@@H](O)c3cc(Cl)sc34)nn2)CC1=O (stereo partly drawn) [Compound 287] | 50 to 500 | 96.0 |  | 
30 | CC(=O)Nc1ccc(C2CC3(CC(C)N2)OCCc2cc(Cl)sc23)cn1 (stereo not drawn) [Compound 37] | < 50 |  | 99.7 | 
31 | CNC(=O)C(C)Cn1cc([C@@H]2C[C@]3(C[C@H](C)N2)OC[C@@H](O)c2cc(Cl)sc23)nn1 (stereo partly drawn) [Compound 258] | > 500 | 98.0 |  | 
32 | C[C@H]1C[C@@]2(C[C@@H](c3cn(C)nn3)N1)OCC(O)(C(F)F)c1cc(Cl)sc12 (single isomer, unassigned) [Compound 184] | 50 to 500 |  | 99.3 | 
33 | C[C@H]1C[C@@]2(C[C@@H](c3cn(CC4CCS(=O)(=O)C4)nn3)N1)OC[C@@H](O)c1cc(Cl)sc12 (stereo partly drawn) [Compound 265] | 50 to 500 |  |  | 
34 | C#C[C@@H]1C[C@]2(C[C@H](C)N1)OC[C@@H](O)c1cc(Cl)sc12 [Compound 222, (2'S,4S,6'S,7S)-2-chloro-2'-ethynyl-6'-methyl-spiro[4,5-dihydrothieno[2,3-c]pyran-7,4'-piperidine]-4-ol] | 50 to 500 |  | 100 | 
35 | CCC(O)Cn1cc([C@@H]2C[C@]3(C[C@H](C)N2)OCC(F)(F)c2cc(Cl)sc23)nn1 (stereo partly drawn) [Compound 325] | 50 to 500 | 98.0 |  | 
